# The source made the active and inactive calls.
# What was measured:
# [1] = target: T1, Microphthalmia-associated transcription factor (Homo sapiens, UniProt O75030); experiment: TRPM1 promoter luciferase signal decrease, dose response, MITF inhibitor project, cell-based, SK-MEL-5, cherry-picked, set 3 (AID 493073); type: functional
# T1 sequence (O75030 whole entry): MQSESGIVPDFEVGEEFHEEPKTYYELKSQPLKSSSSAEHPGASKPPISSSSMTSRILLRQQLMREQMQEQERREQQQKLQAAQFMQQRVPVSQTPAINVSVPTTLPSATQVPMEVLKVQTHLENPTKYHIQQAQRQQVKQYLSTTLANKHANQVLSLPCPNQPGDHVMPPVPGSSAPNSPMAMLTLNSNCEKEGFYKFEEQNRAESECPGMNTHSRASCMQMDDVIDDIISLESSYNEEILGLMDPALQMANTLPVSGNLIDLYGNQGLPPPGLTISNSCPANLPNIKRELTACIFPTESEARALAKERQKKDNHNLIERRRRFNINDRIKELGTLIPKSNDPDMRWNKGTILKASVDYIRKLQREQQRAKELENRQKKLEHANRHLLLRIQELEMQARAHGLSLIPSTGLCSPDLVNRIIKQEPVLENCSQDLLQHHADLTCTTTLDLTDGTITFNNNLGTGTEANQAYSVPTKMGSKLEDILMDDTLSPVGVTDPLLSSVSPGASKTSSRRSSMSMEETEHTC
# [2] = control 3'UTR Renilla luciferase suppression, dose response, counter-screen for Shn3 inhibitor project, cell-based, Clone20-Shn3RL, cherry-picked (AID 624133); type: functional
# [3] = Shn3 3'UTR reporter inhibitors, dose response, cell-based, Clone20 osteoblasts, firefly luciferase, cherry-picked (AID 624132); type: functional;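 further: firefly luciferase luminescence from reporter carrying the Shn3 3'UTR in osteoblasts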
# [4] = HepG2 cell cytotoxicity, dose response, cytotoxicity control for Shn3 inhibitor project, CellTiter-Glo, cherry-picked (AID 624134); type: functional, cell-based
# [5] = target: T2, Rac GTPase-activating protein 1 (Homo sapiens, UniProt Q9H0H5); experiment: MgcRacGAP GTPase-activating activity inhibitors, confirmation, biochemical, ADP Hunter fluorescence, primary and confirmatory (AID 624330); type: functional
# T2 sequence (Q9H0H5 whole entry): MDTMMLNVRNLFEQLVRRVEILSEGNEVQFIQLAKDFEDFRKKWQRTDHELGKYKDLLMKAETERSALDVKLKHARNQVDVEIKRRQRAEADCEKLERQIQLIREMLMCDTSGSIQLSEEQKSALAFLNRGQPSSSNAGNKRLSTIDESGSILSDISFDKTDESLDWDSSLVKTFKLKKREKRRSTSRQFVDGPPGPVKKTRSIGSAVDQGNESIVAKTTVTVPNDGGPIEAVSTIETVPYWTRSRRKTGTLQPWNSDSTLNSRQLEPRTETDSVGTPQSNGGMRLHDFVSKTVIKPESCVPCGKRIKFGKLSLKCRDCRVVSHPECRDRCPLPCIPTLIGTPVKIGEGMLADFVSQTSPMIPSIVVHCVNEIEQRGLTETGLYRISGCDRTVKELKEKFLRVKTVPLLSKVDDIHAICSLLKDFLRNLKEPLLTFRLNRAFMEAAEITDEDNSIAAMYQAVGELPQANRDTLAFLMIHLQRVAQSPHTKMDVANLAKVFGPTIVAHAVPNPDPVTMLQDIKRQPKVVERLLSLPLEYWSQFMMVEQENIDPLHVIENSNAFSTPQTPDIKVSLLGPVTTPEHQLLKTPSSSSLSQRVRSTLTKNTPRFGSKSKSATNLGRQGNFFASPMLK
# [6] = target: Heat shock protein HSP 90-alpha (Homo sapiens, UniProt P07900); type: functional, organism-based
# [7] = Luminescence Cell-Based Dose Response HTS to Identify Activators of Luciferase Translation or Activity in H4 […] Cells. [Related pubchem assays: 1829 (Project Summary), 1814 (Primary HTS)]; type: functional
# H4 = experiment: Luminescence Cell-Based Dose Response HTS to Identify Activators of 5'UTR Stem-Loop Driven Prion Protein mRNA Translation in H4 Neuroglioblastoma Cells. [Related pubchem assays: 1829 (Project Summary), 1814 (Primary HTS)]; type: functional; conditions: Homo sapiens
# [8] = Luminescence Cell-Based Dose Confirmation HTS to Identify Activators of 5'UTR Stem-Loop Driven Alpha-Synuclein mRNA Translation in H4 Neuroglioblastoma Cells. [Related pubchem assays: 1829 (Project Summary), 1814 (Primary HTS)]; type: functional
# [9] = target: T3, Ubiquitin-conjugating enzyme E2 N (Homo sapiens, UniProt P61088); type: functional;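 further: Dose-response confirmation in a TR-FRET assay detecting UBC13-driven polyubiquitin chain formation, inhibition measured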
# T3 sequence (P61088 whole entry): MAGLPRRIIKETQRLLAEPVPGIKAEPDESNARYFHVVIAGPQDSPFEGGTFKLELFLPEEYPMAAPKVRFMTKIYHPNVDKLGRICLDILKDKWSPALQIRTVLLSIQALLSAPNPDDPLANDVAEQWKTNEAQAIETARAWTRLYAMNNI
# [10] = Luminescence Cell-Based Dose Response HTS to Identify Inhibitors of 5'UTR Stem-Loop Driven Prion Protein mRNA Translation in H4 Neuroglioblastoma Cells. [Related pubchem assays: 1827 (Project Summary), 1813 (Primary HTS)]; type: functional
# [11] = inhibitors of firefly luciferase expression or activity, dose response, H4 neuroglioma cells, luminescence (AID 1990); type: functional, cell-based
# [12] = inhibitors of SNCA 5'UTR-driven reporter translation, confirmation, H4 neuroglioma cells, luminescence (AID 1988); type: functional, cell-based
# INS1 = experiment: beta cell apoptosis inhibitors, cytokine rescue, dose response, luminescence, retest (AID 449756); type: functional, cell-based; conditions: Rattus norvegicus;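 further: cell death triggered by IL-1 beta plus TNF-alpha plus IFN-gamma mixture; protective hits raise ATP signal compared with cytokine alone wells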
# [13] = C. albicans growth with fluconazole, confirmation, fluorescence, retest (AID 2467); type: functional, cell-based
# [14] = NIH-3T3 fibroblast cytotoxicity, dose response, cytotoxicity control, cell-based, fluorescence, Alamar Blue, secondary assay (AID 2327); type: functional;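 further: NIH-3T3 mouse fibroblasts cultured with fluconazole at 8 µg/mL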
# cells = type: functional
# [15] = THP-1 cell cytotoxicity, dose response, cytotoxicity control for non-replicating M. tuberculosis project (AID 489025); type: functional
# Cytochrome P450 3A4 = Cytochrome P450 3A4 (Homo sapiens, UniProt P08684);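 further: CYP3A4 tested as one member of a cytochrome P450 panel screen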
# Cytochrome P450 3A4, sequence (P08684 whole entry): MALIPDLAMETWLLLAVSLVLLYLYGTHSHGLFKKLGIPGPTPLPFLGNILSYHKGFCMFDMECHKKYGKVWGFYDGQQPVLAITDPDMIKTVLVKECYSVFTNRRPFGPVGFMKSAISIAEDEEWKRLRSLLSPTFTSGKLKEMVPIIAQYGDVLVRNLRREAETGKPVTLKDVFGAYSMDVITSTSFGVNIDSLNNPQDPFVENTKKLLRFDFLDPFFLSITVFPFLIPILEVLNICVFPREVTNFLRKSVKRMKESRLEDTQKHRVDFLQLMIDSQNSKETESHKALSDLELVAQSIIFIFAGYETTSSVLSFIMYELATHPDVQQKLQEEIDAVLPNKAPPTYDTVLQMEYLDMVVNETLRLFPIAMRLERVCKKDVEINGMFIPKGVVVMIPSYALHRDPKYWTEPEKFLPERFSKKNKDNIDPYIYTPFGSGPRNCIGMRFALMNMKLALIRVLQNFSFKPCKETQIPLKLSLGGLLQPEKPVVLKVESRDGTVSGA
# Protein RecA = target: T4, Protein RecA (Mycobacterium tuberculosis, UniProt P9WHJ3); experiment: Fluorescence Cell-Free Homogeneous Dose Retest to Identify Inhibitors of RecA-Intein Splicing Activity. [Related pubchem assays (depositor defined):AID2097, AID2223, AID489010, AID492950]; type: functional
# T4 sequence (P9WHJ3 whole entry): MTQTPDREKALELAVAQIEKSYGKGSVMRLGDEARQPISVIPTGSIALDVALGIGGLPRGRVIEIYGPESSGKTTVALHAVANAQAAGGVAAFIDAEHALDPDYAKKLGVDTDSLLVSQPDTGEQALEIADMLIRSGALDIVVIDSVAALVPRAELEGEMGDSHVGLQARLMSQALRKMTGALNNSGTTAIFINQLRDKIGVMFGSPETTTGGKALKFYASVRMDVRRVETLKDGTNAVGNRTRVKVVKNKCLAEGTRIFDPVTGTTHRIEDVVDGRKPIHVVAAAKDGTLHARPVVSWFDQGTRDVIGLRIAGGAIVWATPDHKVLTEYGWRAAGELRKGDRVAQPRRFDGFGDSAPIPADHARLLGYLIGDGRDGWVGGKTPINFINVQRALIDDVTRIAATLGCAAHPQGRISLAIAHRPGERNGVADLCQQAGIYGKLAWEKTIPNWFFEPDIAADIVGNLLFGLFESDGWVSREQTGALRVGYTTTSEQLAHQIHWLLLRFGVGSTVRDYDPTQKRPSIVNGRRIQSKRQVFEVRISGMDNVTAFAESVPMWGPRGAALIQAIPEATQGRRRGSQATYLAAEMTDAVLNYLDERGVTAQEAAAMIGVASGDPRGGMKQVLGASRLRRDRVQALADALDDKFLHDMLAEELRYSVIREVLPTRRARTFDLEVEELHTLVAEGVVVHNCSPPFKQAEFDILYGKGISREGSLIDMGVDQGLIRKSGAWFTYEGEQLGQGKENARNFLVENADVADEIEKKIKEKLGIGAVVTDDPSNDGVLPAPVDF
# [16] = target: T5, Replicative DNA helicase DnaB (Mycobacterium tuberculosis, UniProt P9WMR3); experiment: DnaB intein splicing inhibitors, dose response, biochemical, cell-free fluorescence (AID 449749); type: functional
# T5 sequence (P9WMR3 whole entry): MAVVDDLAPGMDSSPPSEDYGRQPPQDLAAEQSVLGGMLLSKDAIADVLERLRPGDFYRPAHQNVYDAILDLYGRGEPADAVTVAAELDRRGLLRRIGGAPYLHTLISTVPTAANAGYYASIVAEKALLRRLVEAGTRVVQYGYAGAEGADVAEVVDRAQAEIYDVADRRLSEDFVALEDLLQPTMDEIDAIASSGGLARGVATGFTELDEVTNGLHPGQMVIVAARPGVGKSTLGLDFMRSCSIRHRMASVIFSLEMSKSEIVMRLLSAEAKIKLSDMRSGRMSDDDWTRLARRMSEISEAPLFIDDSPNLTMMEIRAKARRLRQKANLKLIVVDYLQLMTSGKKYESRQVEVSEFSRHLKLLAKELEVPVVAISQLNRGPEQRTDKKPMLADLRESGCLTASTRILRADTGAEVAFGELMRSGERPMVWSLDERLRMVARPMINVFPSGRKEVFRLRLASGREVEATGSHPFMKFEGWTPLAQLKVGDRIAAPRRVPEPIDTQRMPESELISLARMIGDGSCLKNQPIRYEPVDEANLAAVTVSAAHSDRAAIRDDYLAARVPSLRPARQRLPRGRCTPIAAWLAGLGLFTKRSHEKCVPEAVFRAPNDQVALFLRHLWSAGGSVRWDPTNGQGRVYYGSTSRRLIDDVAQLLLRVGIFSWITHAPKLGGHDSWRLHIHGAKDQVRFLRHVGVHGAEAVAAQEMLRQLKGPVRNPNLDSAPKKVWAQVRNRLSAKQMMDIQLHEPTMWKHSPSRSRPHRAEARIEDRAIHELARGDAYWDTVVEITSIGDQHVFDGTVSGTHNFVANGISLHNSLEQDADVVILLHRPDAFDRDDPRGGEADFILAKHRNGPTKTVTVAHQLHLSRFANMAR
structure (smiles),measurement,setting,value
O=C(O)c1ccc(C(=O)Nc2ccc(F)cc2)cc1,AC50,[1],19.8 µM (active)
COC(=O)[C@]1(C)CCC[C@@]2(C)C3CC[C@@]4(C)C[C@]3(CCC21)CC(=O)N4Cc1ccc(OC)cc1 (stereo partly specified),AC50,[2],10.6 µM (active)
same,AC50,[3],8.16 µM (active)
same,AC50,[4],> 70 µM (inactive)
COc1ccc(CN2CCN(Cc3ccc(C(F)(F)F)cc3)CC2)cc1,IC50,[5],99.6 µM (active)
O=C(NCCCCc1ccccc1)c1ccc(Br)cc1,AC50,[6],3.65 µM (active)
COc1ccc2cc(OCC(=O)NNC(=O)Nc3ccc(C(C)=O)cc3)ccc2c1,EC50,[7],33.4 µM (active)
same,IC50,[5],239 µM (active)
same,EC50,H4,20.3 µM (active)
same,EC50,[8],12.4 µM (active)
COc1cc(CNCc2ccccc2C(F)(F)F)cc(OC)c1,IC50,[5],113 µM (active)
O=C(NCC1CCCCC1)C1(CC2CC(c3cccc(Br)c3)=NO2)CCNCC1 (stereo unspecified),AC50,[1],18.1 µM (active)
same,IC50,[9],> 20 µM (inactive)
O=C(Nc1ccc(N2CCOCC2)cc1)c1cnsn1,AC50,[1],3.05 µM (active)
same,EC50,[10],5.28 µM (active)
same,EC50,[11],3.19 µM (active)
same,EC50,[12],1.9 µM (active)
COc1cc(/C=C/C(=O)OCC(=O)N(C)Cc2ccccc2)ccc1O,IC50,[5],35.2 µM (active)
CC(C(=O)Nc1ccc(F)c(F)c1)N1CCN(C)CC1 (stereo unspecified),IC50,[5],83.1 µM (active)
Cc1c(OCC(=O)C(C)(C)C)ccc2c(-c3ccccc3)cc(=O)oc12,AC50,[6],7.83 µM (active)
COc1cc2nc(=S)[nH]c(Nc3ccc(NC(C)=O)cc3)c2cc1OC,IC50,[5],306 µM (active)
same,IC50,[9],> 20 µM (inactive)
Cc1ccc(CCNc2ccc3ccccc3c2)cn1,IC50,[5],105 µM (active)
c1ccc(-c2cc3nc(NCC4CC4)nc(NCC4CCCCC4)c3s2)cc1,AC50,[2],3.12 µM (active)
same,AC50,[3],2.67 µM (active)
same,AC50,[4],9.15 µM (active)
COc1ccc(C(=O)N/N=C/c2sc3ccccc3c2O)cc1,EC50,[10],11 µM (active)
same,EC50,[11],12.7 µM (active)
same,EC50,[12],10.2 µM (active)
same,AC50,[6],2.68 µM (active)
same,AC50,INS1,1.8 µM (active)
CC1(C(=O)N/N=C/c2ccc([N+](=O)[O-])o2)CC1(Br)Br (stereo unspecified),AC50,[1],10.3 µM (active)
same,EC50,[13],2.46 µM (active)
same,EC50,[14],> 150 µM (inactive)
O=C(N/N=C/c1ccc(Br)s1)c1ccccc1[N+](=O)[O-],IC50,cells,49.2 µM (active)
same,CC50,[15],> 40 µM (active)
same,AC50,Cytochrome P450 3A4,17.8 µM (inconclusive)
O=C(N/N=C/c1ccc([N+](=O)[O-])o1)c1ccc(O)cc1 [NIFUROXAZIDE],AC50,[1],5.2 µM (active)
same,EC50,Protein RecA,> 380 µM (inactive)
same,AC50,INS1,5.18 µM (active)
same,AC50,[16],> 380 µM (inactive)
